Patent US20250019385A1, “SPIROCYCLIC ANNULATED 2-AMINO-3-CYANO THIOPHENES AND DERIVATIVES FOR THE TREATMENT OF CANCER” (Boehringer Ingelheim International GmbH, priority 2023, published 2025)
≈ marks a conversion by molar mass, not a printed value. Like-named read-outs stand apart in the source and are kept apart here.

Tests used:
[1] = target: KRAS (G12C)::SOS1 protein-protein interaction (Homo sapiens (Human), UniProt P01116, C118S/C51S/C80L/G12C); assay: KRAS::SOS1 AlphaScreen binding assay (KRAS G12C); settings: GDP
Excerpt: (§1) This assay can be used to examine the potency with which compounds according to the invention binding to (mutated) KRAS inhibit the protein-protein interaction between SOS1 and (mutated) KRAS e.g. KRAS G12C, KRAS G12D. […] Low IC50 values in this assay setting are indicative of strong inhibition of protein-protein interaction between SOS1 and KRAS:
(§2) These assays measure the inhibitory effect of compounds on KRAS mutant protein-protein interactions using the Alpha Screen technology by Perkin Elmer.
(§3) The following (mutant) enzyme forms of KRAS and interacting proteins are used in these assays at the given concentrations:
KRAS (G12C) 1-169, N-terminal 6His-tag for purification, cleaved off, C-terminal avi-tag, biotinylated, mutations: C51S, C80L, C118S (in house); final assay concentration 7.5 nM and SOS1 564-1049, N-terminal 229 GST-tag, TEV cleavage site (Viva Biotech Ltd); final assay concentration 5 nM;
(§4) Test compounds dissolved in DMSO are dispensed onto assay plates (Proxiplate 384 PLUS, white, PerkinElmer; 6008289) using an Access Labcyte Workstation with the Labcyte Echo 55x. For the chosen highest assay concentration of 100 μM, 150 nL of compound solution are transferred from a 10 mM DMSO compound stock solution. A series of eleven fivefold dilutions per compound are transferred to the assay plate, compound dilutions are tested in duplicates. DMSO are added as backfill to a total volume of 150 nL.
(§5) The assays run on a fully automated robotic system in a darkened room below 100 Lux. To 150 nl of compound dilution 10 μl of a mix including KRAS mutant protein, SOS1 (final assay concentrations see above) and GDP nucleotide (Sigma G7127; final assay concentration 10 μM) in assay buffer (1×PBS, 0.1% BSA, 0.05% Tween 20) are added into columns 1-24.
(§6) After 30 minutes incubation time 5 μl of Alpha Screen bead mix in assay buffer are added into columns 1-23. Bead mix consists of AlphaLISA Glutathione Acceptor Beads (PerkinElmer, Cat No AL109) and AlphaScreen Streptavidin Donor Beads (PerkinElmer Cat No 6760002) in assay buffer at a final assay concentration of 10 μg/mL each.
(§7) Plates are kept at room temperature in a darkened incubator. After an additional 60 minutes incubation time the signal is measured in a PerkinElmer Envision HTS Multilabel Reader using the AlphaScreen specs from PerkinElmer.
(§8) Each plate contains up to 16 wells of a negative control depending on the dilution procedure (platewise or serial) (DMSO instead of test compound; with KRAS mutant::SOS1 GOP mix and bead mix; column 23) and 16 wells of a positive control (DMSO instead of test compound; with KRAS mutant::SOS1 GOP mix w/o bead mix; column 24).
(§9) As internal control known inhibitors of KRAS mutant::SOS1 interaction can be measured on each compound plate.
(§10) IC50 values are calculated and analyzed with Boehringer Ingelheim's MEGALAB C50 application using a 4 parametric logistic model.
(§11) Tables of example compounds disclosed herein contain IC50 values determined using the above assays (see Table 43).

[2] = target: KRAS (G12D)::SOS1 protein-protein interaction (Homo sapiens (Human), UniProt P01116, G12D); assay: KRAS::SOS1 AlphaScreen binding assay (KRAS G12D); settings: GDP
Excerpt: as §1, §2, §3
KRAS (G12D) 1-169, N-terminal 6His-tag, C-terminal avi-tag (Xtal BioStructures, Inc.); final assay concentration 10 nM and SOS1 564-1049, N-terminal 229 GST-tag, TEV cleavage site (Viva Biotech Ltd); final assay concentration 5 nM;
as §4, §5, §6, §7, §8, §9, §10, §11

[3] = Solubility measurement (DMSO solution precipitation method); format: physicochemical; settings: for solubility at 24 h: aqueous buffer, kinetic from dmso stock
Method: A 10 mM DMSO stock solution of a test compound is used to determine its aq. solubility. The DMSO solution is diluted with an aq. medium (McIlvaine buffer with pH=4.5 or 6.8) to a final concentration of 250 μM. After 24 h of shaking at ambient temperature a potentially formed precipitate is removed by filtration. The concentration of the test compound in the filtrate is determined by LC-UV methods by calibrating the signal to the signal of a reference solution with complete dissolution of the test compound in acetonitrile/water (1:1) with known concentration.

NCI-H358 cells = assay: NCI-H358 CTG proliferation assay (120 h) (NSCLC, G12C); format: cell-based
Method: (§12) NCI-H358 cells (ATCC No. CRL-5807) are dispensed into black 384-well plates, flat and clear bottom (Greiner, PNr. 781091) at a density of 200 cells per well in 60 μl RPMI-1640 ATCC-Formulation (Gibco #A10491)+10% FCS (fetal calf serum). Cells are incubated overnight at 37° C. in a humidified tissue culture incubator at 5% CO2. Compounds (10 mM stock in DMSO) are added at logarithmic dose series using the ECHO acoustic liquid handler system (Beckman Coulter), normalizing for added DMSO and including DMSO controls. All compound treatments are performed in technical duplicates. For the TO time point measurement, untreated cells are analyzed at the time of compound addition. Plates are incubated for 120 h, and cell viability is measured using CellTiter-Glo luminescent cell viability reagent (Promega product code G7570). Viability (stated as percent of control) is defined as relative luminescence units RLU of each well divided by the RLU of cells in DMSO controls. IC50 values are determined from viability measurements by non-linear regression using a four-parameter model.
(§13) IC50 values of representative compounds according to the invention measured with these assays in the indicated cell lines are presented in Table 46.

NCI-H727 cells = assay: NCI-H727 CTG proliferation assay (120 h) (lung cancer, G12V); format: cell-based; settings: Homo sapiens
Method: as §12, with “NCI-H727” for “NCI-H358”, “CRL-5815)” for “CRL-5807)”, “500” for “200”, “RPMI” for “RPMI-1640”, “(PAN P04-18047)+10%” for “(Gibco #A10491)+10%”, “serum, HyClone, SH30084.03).” for “serum).”
as §13

[4] = McIlvaine buffer pH 4.5, 24 h, read-out: solubility pH 4.5
[5] = McIlvaine buffer pH 6.8, 24 h, read-out: solubility pH 6.8

KRAS (G12D)::SOS1 protein-protein interaction, sequence (P01116 other isoform, or with tags, fused parts or gaps G12D): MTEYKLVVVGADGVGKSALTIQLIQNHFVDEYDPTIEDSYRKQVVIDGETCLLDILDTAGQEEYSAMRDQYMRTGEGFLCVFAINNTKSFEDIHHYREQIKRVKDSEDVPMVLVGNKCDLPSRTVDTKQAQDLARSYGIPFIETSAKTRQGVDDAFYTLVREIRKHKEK
KRAS (G12C)::SOS1 protein-protein interaction, sequence (P01116 other isoform, or with tags, fused parts or gaps G12C/C51S/C80L/C118S): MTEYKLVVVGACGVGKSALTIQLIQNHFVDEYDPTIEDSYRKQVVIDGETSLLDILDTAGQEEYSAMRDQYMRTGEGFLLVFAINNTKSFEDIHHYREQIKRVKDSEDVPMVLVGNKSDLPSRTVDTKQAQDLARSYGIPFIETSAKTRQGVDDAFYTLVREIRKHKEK

Row | SMILES | IC50 [1] [nM] | IC50 [2] [nM] | solubility at 24 h [3, 4] [µg/mL] | solubility at 24 h [3, 5] [µg/mL] | IC50 (NCI-H358 cells; Homo sapiens) [nM] | IC50 (NCI-H727 cells) [nM] | solubility pH 4.5 ([3]; McIlvaine buffer pH 4.5, 24 h, from DMSO stock) [μg/ml] | solubility pH 6.8 ([3]; McIlvaine buffer pH 6.8, 24 h, from DMSO stock) [μg/mL] | IC50 (NCI-H358 cells) [nM]
1 | CO[C@H]1CCN(C)[C@@H]1[C@H](C)Oc1nc(-c2onc3c2CCC[C@@]32CCCc3sc(N)c(C#N)c32)nc2c1n(C)c(=O)n2[C@@H]1CCCOC1 [I-6] | 2 | 2 | > 164 | < 1 | 4 | 3 | – | – | –
2 | COCCn1c(=O)n(C)c2c(O[C@@H](C)[C@@H]3CCCN3C)nc(-c3onc4c3CCC[C@@]43CCCc4sc(N)c(C#N)c43)nc21 [I-7] | 3 | 5 | > 150 | > 147 | 124 | 348 | – | – | –
3 | C[C@H](Oc1nc(-c2onc3c2CCC[C@@]32CCCc3sc(N)c(C#N)c32)nc2c1n(C)c(=O)n2[C@H]1CCOC1)[C@@H]1CCCN1C [I-9] | 2 | 2 | > 149 | > 144 | 52 | 138 | – | – | –
4 | C[C@H](Oc1nc(-c2onc3c2CCC[C@@]32CCCc3sc(N)c(C#N)c32)nc2c1n(C)c(=O)n2[C@H]1CCCOC1)[C@@H]1CCCN1C [I-11] | 4 | 6 | > 149 | 99 (≈ 154 µM) | 387 | 497 | – | – | –
5 | C[C@H](Oc1nc(-c2onc3c2CCC[C@@]32CCCc3sc(N)c(C#N)c32)nc2c1[nH]c(=O)n2[C@@H]1CCCOC1)[C@@H]1CCCN1C [I-13] | 2 | 2 | > 148 | > 131 | 9 | 13 | – | – | –
6 | CO[C@@H]1C[C@@H]([C@H](C)Oc2nc(-c3onc4c3CCC[C@@]43CCCc4sc(N)c(C#N)c43)nc3c2n(C)c(=O)n3[C@@H]2CCCOC2)N(C)C1 [I-14] | 2 | 1 | > 163 | < 1 | 9 | 6 | – | – | –
7 | CCn1c(=O)n([C@@H]2CCCOC2)c2nc(-c3onc4c3CCC[C@@]43CCCc4sc(N)c(C#N)c43)nc(OCC3(CN4CCCC4)CC3)c21 [I-35] | 2 | 7 | – | – | 232 | 159 | – | – | –
8 | C[C@H](Oc1nc(-c2noc3c2CCC[C@@]32CCCc3sc(N)c(C#N)c32)nc2c1CC[C@]21CNCCO1)[C@@H]1C[C@@H](F)CN1C [II-20] | 2 | 1 | – | – | – | – | >156 | >156 | 59

More lines, main results first:

Row | IC50 [1] [nM] | IC50 [2] [nM] | solubility at 24 h [3, 4] [µg/mL] | solubility at 24 h [3, 5] [µg/mL] | IC50 (NCI-H358 cells; Homo sapiens) [nM] | IC50 (NCI-H727 cells) [nM] | SMILES | solubility pH 4.5 ([3]; McIlvaine buffer pH 4.5, 24 h, from DMSO stock) [μg/ml] | solubility pH 6.8 ([3]; McIlvaine buffer pH 6.8, 24 h, from DMSO stock) [μg/mL] | IC50 (NCI-H358 cells) [nM]
9 | 2 | 1 | > 157 | > 155 | 9 | 10 | COCCn1c(=O)n([C@@H]2CCOC2)c2nc(-c3onc4c3CCC[C@@]43CCCc4sc(N)c(C#N)c43)nc(O[C@@H](C)[C@@H]3CCCN3C)c21 [I-1] | – | – | –
10 | 1 | 2 | > 159 | 115 (≈ 174 µM) | 43 | 14 | CO[C@H]1C[C@@H]([C@H](C)Oc2nc(-c3onc4c3CCC[C@@]43CCCc4sc(N)c(C#N)c43)nc3c2n(C)c(=O)n3[C@@H]2CCOC2)N(C)C1 [I-2] | – | – | –
11 | 1 | 1 | > 157 | 77 (≈ 117 µM) | 4 | 5 | CO[C@@H]1C[C@@H]([C@H](C)Oc2nc(-c3onc4c3CCC[C@@]43CCCc4sc(N)c(C#N)c43)nc3c2n(C)c(=O)n3[C@@H]2CCOC2)N(C)C1 [I-3] | – | – | –
12 | 2 | 4 | > 152 | 28 (≈ 43.2 µM) | 107 | 33 | C[C@H](Oc1nc(-c2onc3c2CCC[C@@]32CCCc3sc(N)c(C#N)c32)nc2c1n(C)c(=O)n2[C@@H]1CCOC1)[C@@H]1[C@H](F)CCN1C [I-4] | – | – | –
13 | 1 | 2 | > 150 | 2 (≈ 3.08 µM) | 54 | 18 | C[C@H](Oc1nc(-c2onc3c2CCC[C@@]32CCCc3sc(N)c(C#N)c32)nc2c1n(C)c(=O)n2[C@@H]1CCOC1)[C@@H]1[C@@H](F)CCN1C [I-5] | – | – | –
14 | 1 | 1 | > 147 | > 139 | 9 | 12 | C[C@H](Oc1nc(-c2onc3c2CCC[C@@]32CCCc3sc(N)c(C#N)c32)nc2c1[nH]c(=O)n2[C@@H]1CCOC1)[C@@H]1CCCN1C [I-8] | – | – | –
15 | 2 | 5 | > 151 | > 148 | 42 | 108 | C[C@H](Oc1nc(-c2onc3c2CCC[C@@]32CCCc3sc(N)c(C#N)c32)nc2c1n(C)c(=O)n2C1CCOCC1)[C@@H]1CCCN1C [I-10] | – | – | –
16 | 1 | 1 | > 155 | > 142 | 6 | 3 | C[C@H](Oc1nc(-c2onc3c2CCC[C@@]32CCCc3sc(N)c(C#N)c32)nc2c1n(C)c(=O)n2[C@@H]1CCCOC1)[C@@H]1CCCN1C [I-12] | – | – | –
17 | 1 | 1 | – | – | 5 | 7 | C[C@H](Oc1nc(-c2noc3c2CCC[C@@]32CCCc3sc(N)c(C#N)c32)nc2c1CCCO[C@]21CCOC1)[C@@H]1CCCN1C [II-10] | – | – | –
18 | 3 | 2 | 89 (≈ 152 µM) | 37 (≈ 63.1 µM) | 43 | – | C[C@H](Oc1nc(-c2noc3c2CCC[C@@]32CCCc3sc(N)c(C#N)c32)nc2c1CCC21CCOC1)[C@@H]1CCCN1C (stereo partly drawn) [II-18] | – | – | –
